In patent US20110262508A1, “ANTIMICROBIAL COMPOSITIONS, FORMULATIONS AND USES THEREOF” (priority 2007, published 2011):
Read-outs that look alike come from different tables or passages of the source. Peptide text beside a SMILES is read from it.

How the values were obtained:
[1] = test system: A. baumannii ATCC 19606, Acinetobacter spp. ATCC 17903, Acinetobacter spp. ATCC 19004, E. coli BL21, S. aureus, S. typhimurium AroA, P. aeruginosa, P. …; assay: Antibacterial spectrum over the serial dilution panel (Table 6); format: cell-based; details: summary of Table 6
Method in brief: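 Growth inhibition in liquid culture: freshly inoculated strains exposed to roughly 5–10 μM peptide, 5-6 h shaking at 37° C. Absorbance at 595 nm measured growth, with 0.1% acetonitrile vehicle as control.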

[2] = test system: S. typhimurium strain AroA; format: cell-based
Protocol: Synthetic peptides were tested for their ability to inhibit bacterial growth in liquid culture. […] 19606, Acinetobacter spp. ATCC 17903, Acinetobacter spp. ATCC 19004, Escherichia coli strain BL21, S. aureus, S. typhimurium strain AroA, P. aeruginosa or P. pneumotropica. After 5-6 hours of shaking at 37° C., growth was measured as absorbance at 595 nm. As a control, cultures were grown in the presence of 0.1% acetonitrile (i.e., the concentration present in 10 μM peptide).

Structure (SMILES)	selectively inhibited growth of Acinetobacter spp. ATCC 19004, and S. aureus [1]	% inhibition of bacterial growth by peptide ([2]; 5 μM peptide)	% inhibition of bacterial growth by peptide ([2]; 10 μM peptide)	% inhibition of bacterial growth by peptide ([2]; 15 μM peptide)	% inhibition of bacterial growth by peptide ([2]; 20 μM peptide)	% inhibition of bacterial growth by peptide ([2]; 12.5 μM peptide)	% inhibition of bacterial growth by peptide ([2]; 17.5 μM peptide)	selectively inhibited growth of Acinetobacter spp. ATCC 19004 [1]	selectively inhibited growth of S. aureus [1]
C[C@@H](O)[C@H](NC(=O)[C@H](CS)NC(=O)[C@H](CO)NC(=O)[C@@H](N)Cc1c[nH]cn1)C(=O)N[C@H](C(=O)N1CCC[C@H]1C(=O)N[C@@H](CC(N)=O)C(=O)N[C@H](C(=O)N1CCC[C@H]1C(=O)N[C@@H](CCC(N)=O)C(=O)N[C@@H](CCC(N)=O)C(=O)N1CCC[C@H]1C(=O)N[C@@H](Cc1c[nH]cn1)C(=O)N1CCC[C@H]1C(=O)N[C@@H](Cc1c[nH]cn1)C(=O)N[C@@H](Cc1c[nH]cn1)C(=O)N[C@@H](CCCNC(=N)N)C(=O)N[C@@H](Cc1c[nH]cn1)C(=O)N[C@@H](CCCNC(=N)N)C(=O)N[C@@H](CCCNC(=N)N)C(=O)N[C@@H](Cc1c[nH]cn1)C(=O)N[C@@H](CCCNC(=N)N)C(=O)N[C@@H](Cc1c[nH]cn1)C(=O)O)[C@@H](C)O)[C@@H](C)O [Ac46] (H-HSCTTPNTPQQPHPHHRHRRHRH-OH; N-terminus and C-terminus assumed)	selectively inhibited growth	3%	16%	18%	36%				
C[C@H](NC(=O)[C@@H](NC(=O)CNC(=O)[C@@H]1CCCN1C(=O)[C@H](Cc1c[nH]cn1)NC(=O)[C@H](CCCNC(=N)N)NC(=O)[C@H](Cc1c[nH]cn1)NC(=O)[C@H](CCCNC(=N)N)NC(=O)[C@H](Cc1c[nH]cn1)NC(=O)[C@H](CCCNC(=N)N)NC(=O)[C@H](CCCNC(=N)N)NC(=O)[C@H](Cc1c[nH]cn1)NC(=O)[C@H](CCCNC(=N)N)NC(=O)[C@H](Cc1c[nH]cn1)NC(=O)[C@H](Cc1c[nH]cn1)NC(=O)[C@@H]1CCCN1C(=O)[C@H](Cc1c[nH]cn1)NC(=O)[C@@H]1CCCN1C(=O)[C@H](CCC(N)=O)NC(=O)[C@H](CCC(N)=O)NC(=O)[C@@H]1CCCN1C(=O)[C@@H](NC(=O)[C@@H](N)CC(N)=O)[C@@H](C)O)[C@@H](C)O)C(=O)O [Ac47] (H-NTPQQPHPHHRHRRHRHRHPGTA-OH; N-terminus and C-terminus assumed)	selectively inhibited growth	13%	25%	29%	50%				
C[C@H](NC(=O)[C@H](CO)NC(=O)[C@H](CCCNC(=N)N)NC(=O)CNC(=O)[C@H](CCCNC(=N)N)NC(=O)CNC(=O)[C@H](CO)NC(=O)[C@H](CO)NC(=O)[C@H](CCCNC(=N)N)NC(=O)CNC(=O)[C@@H]1CCCN1C(=O)[C@@H]1CCCN1C(=O)[C@H](CO)NC(=O)[C@H](CCCNC(=N)N)NC(=O)[C@@H]1CCCN1C(=O)[C@H](CO)NC(=O)[C@@H]1CCCN1C(=O)[C@@H](NC(=O)[C@H](CCCNC(=N)N)NC(=O)CNC(=O)[C@@H](N)Cc1c[nH]c2ccccc12)[C@@H](C)O)C(=O)N[C@@H](CO)C(=O)N[C@@H](CS)C(=O)O [Ac66] (H-WGRTPSPRSPPGRSSGRGRSASC-OH; N-terminus and C-terminus assumed)	selectively inhibited growth			0%	0%	0%	0%		
CC(C)C[C@H](NC(=O)[C@H](C)NC(=O)[C@H](CS)NC(=O)[C@H](CO)NC(=O)[C@H](C)NC(=O)[C@H](CO)NC(=O)[C@H](CCCNC(=N)N)NC(=O)CN)C(=O)N[C@@H](CCCNC(=N)N)C(=O)N[C@@H](Cc1c[nH]c2ccccc12)C(=O)N[C@@H](C)C(=O)NCC(=O)N1CCC[C@H]1C(=O)N[C@@H](CC(C)C)C(=O)N1CCC[C@H]1C(=O)N[C@@H](CCCCN)C(=O)NCC(=O)N[C@@H](CCCNC(=N)N)C(=O)NCC(=O)N[C@@H](CCCCN)C(=O)N[C@@H](Cc1c[nH]c2ccccc12)C(=O)N[C@@H](Cc1c[nH]c2ccccc12)C(=O)N[C@@H](CS)C(=O)O [Ac68] (H-GRSASCALRWAGPLPKGRGKWWC-OH; N-terminus and C-terminus assumed)				0%	0%	0%	0%	selectively inhibited growth	
CSCC[C@H](NC(=O)[C@H](CCCCN)NC(=O)[C@H](CC(C)C)NC(=O)[C@H](CC(C)C)NC(=O)[C@H](Cc1ccccc1)NC(=O)[C@H](Cc1ccccc1)NC(=O)[C@@H](N)Cc1ccccc1)C(=O)N[C@@H](CC(N)=O)C(=O)N[C@@H](Cc1ccc(O)cc1)C(=O)N[C@@H](CC(N)=O)C(=O)N[C@@H](C)C(=O)N[C@H](C(=O)N[C@@H](Cc1c[nH]cn1)C(=O)N[C@@H](CC(C)C)C(=O)N[C@@H](C)C(=O)NCC(=O)N[C@@H](CCCNC(=N)N)C(=O)N[C@@H](CCC(=O)O)C(=O)N[C@@H](Cc1ccccc1)C(=O)O)[C@@H](C)O [Ac88] (H-FFFLLKMNYNATHLAGREF-OH; N-terminus and C-terminus assumed)		0%	0%	0%	13%				selectively inhibited growth
CC[C@H](C)[C@H](NC(=O)[C@H](CCCCN)NC(=O)[C@@H](NC(=O)[C@H](CCCNC(=N)N)NC(=O)[C@H](CO)NC(=O)[C@H](Cc1ccccc1)NC(=O)[C@H](CS)NC(=O)[C@H](CC(N)=O)NC(=O)[C@@H]1CCCN1C(=O)[C@H](CC(=O)O)NC(=O)CN)C(C)C)C(=O)N[C@@H](CC(C)C)C(=O)N[C@@H](C)C(=O)N[C@@H](CS)C(=O)O [Ac96] (H-GDPNCFSRVKILAC-OH)	selectively inhibited growth			6%	0%	0%	0%		
CC[C@H](C)[C@H](NC(=O)[C@H](Cc1ccccc1)NC(=O)[C@H](CCC(N)=O)NC(=O)[C@H](CO)NC(=O)[C@H](Cc1ccccc1)NC(=O)[C@H](Cc1c[nH]cn1)NC(=O)[C@H](CCCNC(=N)N)NC(=O)[C@H](Cc1c[nH]cn1)NC(=O)[C@@H](NC(=O)[C@H](CCCNC(=N)N)NC(=O)[C@H](CC(C)C)NC(=O)CNC(=O)[C@H](CC(C)C)NC(=O)[C@H](CC(=O)O)NC(=O)[C@H](CCCNC(=N)N)NC(=O)[C@@H](NC(=O)[C@H](CCC(N)=O)NC(=O)[C@H](CCCNC(=N)N)NC(=O)[C@@H](N)CCCNC(=N)N)C(C)C)C(C)C)C(=O)N[C@@H](CC(N)=O)C(=O)N[C@@H](CCCNC(=N)N)C(=O)N[C@@H](CO)C(=O)NCC(=O)O [Ac173] (H-RRQVRDLGLRVHRHFSQFINRSG-OH; N-terminus and C-terminus assumed)				0%	0%	0%	0%	selectively inhibited growth	
CC(C)C[C@H](NC(=O)[C@@H](NC(=O)[C@H](CCC(=O)O)NC(=O)[C@@H](NC(=O)[C@H](CCCNC(=N)N)NC(=O)CNC(=O)[C@@H](N)CCC(N)=O)C(C)C)C(C)C)C(=O)N[C@@H](Cc1ccc(O)cc1)C(=O)N[C@@H](CCCNC(=N)N)C(=O)NCC(=O)N[C@@H](CO)C(=O)N[C@@H](Cc1c[nH]c2ccccc12)C(=O)NCC(=O)N[C@H](C(=O)N[C@H](C(=O)N[C@@H](CS)C(=O)O)C(C)C)[C@@H](C)O [Ac175, reference compound] (H-QGRVEVLYRGSWGTVC-OH; N-terminus and C-terminus assumed)		3%	0%	0%	4%				selectively inhibited growth
